From US9624256B2, “Coordination complexes, pharmaceutical solutions comprising coordination complexes, and methods of treating patients” (SYNTHONICS, INC., priority 2004, dated 2017)
Several values for one entry are separate records, joined by “and”; a condition that tells them apart may be missing. Equal values may be shown once. Read-outs that look alike come from different tables or passages of the source.

Legend:
[1] = Precipitation test after adjusting aqueous solution to pH 7.0; assay type: physicochemical; conditions: 32 mg based on topiramate in 1 mL H2O, pH adjusted to 7.0 with 1.0 N HCl
[2] = Solubility/pH studies of topiramate-containing coordination complexes (gravimetric); assay type: physicochemical
Description: Solubility/pH Studies of Topiramate-Containing Coordination Complexes: Initial screening of drug candidates was based on a qualitative determination of aqueous solubility using gravimetric methods. Briefly, a known quantity of coordination compound (ca. 50 mg) was dissolved in a known amount of water ([…]). The pH of the resulting mixture was measured, and the solution/suspension was filtered and concentrated to afford a minimal solubility value.

[3] = for pH: Table 2, pH of the solution; for increase in water solubility over SAHA: pH 10
[4] = cited from earlier work
[5] = highly variable; cited from earlier work
[6] = 23° C., cited from earlier work
[7] = pH 7.4; cited from earlier work

CC1(C)O[C@@H]2[C@@H](CO[C@@]3(COS([NH-])(=O)=O)OC(C)(C)O[C@@H]23)O1.CC1(C)O[C@@H]2[C@@H](CO[C@@]3(COS([NH-])(=O)=O)OC(C)(C)O[C@@H]23)O1.[Ca+2] [Calcium Salt of Topiramate]
precipitation on standing [1]: A precipitate formed immediately

CC1(C)O[C@@H]2[C@@H](CO[C@@]3(COS([NH-])(=O)=O)OC(C)(C)O[C@@H]23)O1.CC1(C)O[C@@H]2[C@@H](CO[C@@]3(COS([NH-])(=O)=O)OC(C)(C)O[C@@H]23)O1.[Ca+2] [Calcium(topiramate)2]
solubility relative to free topiramate ([2]; pH 7.0): at least three times the solubility of free topiramate
solubility (minimal value) ([2]; pH 7.0, gravimetric): ≥ 34 mg/mL
precipitation on standing [1]: No precipitate was observed upon standing for 2 hours

O=C(CCCCCCC(=O)Nc1ccccc1)N[O-].O=C(CCCCCCC(=O)Nc1ccccc1)N[O-].[Mg+2] [Compound 1, Mg(saha)2]
pH of the solution [3]: 7.75
pH [3]: 7.94

O=C(CCCCCCC(=O)Nc1ccccc1)N[O-].O=C(CCCCCCC(=O)Nc1ccccc1)N[O-].[Ca+2] [Compound 2, Ca(saha)2]
pH of the solution [3]: 8.60
pH [3]: 8.6
pH of solution compared with SAHA ([3]; in words): slightly higher than the pH of a solution of SAHA itself

O=C(CCCCCCC(=O)Nc1ccccc1)N[O-].O=C(CCCCCCC(=O)Nc1ccccc1)N[O-].[Ni+2] [Compound 3, Ni(saha)2]
pH of the solution [3]: 5.86
pH [3]: 5.67

O=C(CCCCCCC(=O)Nc1ccccc1)N[O-].[Na+] [Na(saha)]
solution pH required to stay in solution ([4]; prior study, Memorial Sloan Kettering Cancer Center): above 11
pH of the solution [3]: around 10
pH [3]: 10
pH of the solution ([3]; listed as sodium salt of SAHA): 10
increase in water solubility over SAHA [3]: ~7 fold

O=C(CCCCCCC(=O)Nc1ccccc1)NO [SAHA, suberoylanilide hydroxamic acid]
water solubility [4]: about 0.1 mg/mL
oral bioavailability [5]: less than 50%
pH [3]: 7.95

CC1(C)O[C@@H]2[C@@H](CO[C@@]3(COS([NH-])(=O)=O)OC(C)(C)O[C@@H]23)O1.O.O.O.[Na+] [sodium topiramate trihydrate]
water solubility ([6]; trihydrate): about 1300 mg/mL and ~3.59 M

CC1(C)O[C@@H]2[C@@H](CO[C@@]3(COS(N)(=O)=O)OC(C)(C)O[C@@H]23)O1 [topiramate, 2,3:4,5-bis-O-isopropylidene-β-D-fructopyranose sulfamate]
water solubility [6]: about 9.8 mg/mL and ~0.029 M
log D [7]: −0.5

Ca(saha)(quinic acid) [Compound 5]
increase in water solubility over SAHA [3]: ~19 fold

Ca(saha)(tricine) [Compound 4]
pH of the solution [3]: 8.75
pH [3]: 8.75
